Measurements from patent publication US20120208827A1, “BENZIMIDAZOLES AS FATTY ACID SYNTHASE INHIBITORS” (GlaxoSmithKline LLC, priority 2009, published 2012).

What follows are molecules tested against FAS (Homo sapiens, UniProt P49327) (assay: FAS assay (Assay #1 residual NADPH detection or Assay #2 CoA detection with thio-reactive coumarin dye)). Conditions: tested generally according to the assays described (Assay #1 or #2); in at least one experimental run; read-out: pIC50 value (inhibition of FAS) (converted).
Sequence of FAS (P49327 whole entry): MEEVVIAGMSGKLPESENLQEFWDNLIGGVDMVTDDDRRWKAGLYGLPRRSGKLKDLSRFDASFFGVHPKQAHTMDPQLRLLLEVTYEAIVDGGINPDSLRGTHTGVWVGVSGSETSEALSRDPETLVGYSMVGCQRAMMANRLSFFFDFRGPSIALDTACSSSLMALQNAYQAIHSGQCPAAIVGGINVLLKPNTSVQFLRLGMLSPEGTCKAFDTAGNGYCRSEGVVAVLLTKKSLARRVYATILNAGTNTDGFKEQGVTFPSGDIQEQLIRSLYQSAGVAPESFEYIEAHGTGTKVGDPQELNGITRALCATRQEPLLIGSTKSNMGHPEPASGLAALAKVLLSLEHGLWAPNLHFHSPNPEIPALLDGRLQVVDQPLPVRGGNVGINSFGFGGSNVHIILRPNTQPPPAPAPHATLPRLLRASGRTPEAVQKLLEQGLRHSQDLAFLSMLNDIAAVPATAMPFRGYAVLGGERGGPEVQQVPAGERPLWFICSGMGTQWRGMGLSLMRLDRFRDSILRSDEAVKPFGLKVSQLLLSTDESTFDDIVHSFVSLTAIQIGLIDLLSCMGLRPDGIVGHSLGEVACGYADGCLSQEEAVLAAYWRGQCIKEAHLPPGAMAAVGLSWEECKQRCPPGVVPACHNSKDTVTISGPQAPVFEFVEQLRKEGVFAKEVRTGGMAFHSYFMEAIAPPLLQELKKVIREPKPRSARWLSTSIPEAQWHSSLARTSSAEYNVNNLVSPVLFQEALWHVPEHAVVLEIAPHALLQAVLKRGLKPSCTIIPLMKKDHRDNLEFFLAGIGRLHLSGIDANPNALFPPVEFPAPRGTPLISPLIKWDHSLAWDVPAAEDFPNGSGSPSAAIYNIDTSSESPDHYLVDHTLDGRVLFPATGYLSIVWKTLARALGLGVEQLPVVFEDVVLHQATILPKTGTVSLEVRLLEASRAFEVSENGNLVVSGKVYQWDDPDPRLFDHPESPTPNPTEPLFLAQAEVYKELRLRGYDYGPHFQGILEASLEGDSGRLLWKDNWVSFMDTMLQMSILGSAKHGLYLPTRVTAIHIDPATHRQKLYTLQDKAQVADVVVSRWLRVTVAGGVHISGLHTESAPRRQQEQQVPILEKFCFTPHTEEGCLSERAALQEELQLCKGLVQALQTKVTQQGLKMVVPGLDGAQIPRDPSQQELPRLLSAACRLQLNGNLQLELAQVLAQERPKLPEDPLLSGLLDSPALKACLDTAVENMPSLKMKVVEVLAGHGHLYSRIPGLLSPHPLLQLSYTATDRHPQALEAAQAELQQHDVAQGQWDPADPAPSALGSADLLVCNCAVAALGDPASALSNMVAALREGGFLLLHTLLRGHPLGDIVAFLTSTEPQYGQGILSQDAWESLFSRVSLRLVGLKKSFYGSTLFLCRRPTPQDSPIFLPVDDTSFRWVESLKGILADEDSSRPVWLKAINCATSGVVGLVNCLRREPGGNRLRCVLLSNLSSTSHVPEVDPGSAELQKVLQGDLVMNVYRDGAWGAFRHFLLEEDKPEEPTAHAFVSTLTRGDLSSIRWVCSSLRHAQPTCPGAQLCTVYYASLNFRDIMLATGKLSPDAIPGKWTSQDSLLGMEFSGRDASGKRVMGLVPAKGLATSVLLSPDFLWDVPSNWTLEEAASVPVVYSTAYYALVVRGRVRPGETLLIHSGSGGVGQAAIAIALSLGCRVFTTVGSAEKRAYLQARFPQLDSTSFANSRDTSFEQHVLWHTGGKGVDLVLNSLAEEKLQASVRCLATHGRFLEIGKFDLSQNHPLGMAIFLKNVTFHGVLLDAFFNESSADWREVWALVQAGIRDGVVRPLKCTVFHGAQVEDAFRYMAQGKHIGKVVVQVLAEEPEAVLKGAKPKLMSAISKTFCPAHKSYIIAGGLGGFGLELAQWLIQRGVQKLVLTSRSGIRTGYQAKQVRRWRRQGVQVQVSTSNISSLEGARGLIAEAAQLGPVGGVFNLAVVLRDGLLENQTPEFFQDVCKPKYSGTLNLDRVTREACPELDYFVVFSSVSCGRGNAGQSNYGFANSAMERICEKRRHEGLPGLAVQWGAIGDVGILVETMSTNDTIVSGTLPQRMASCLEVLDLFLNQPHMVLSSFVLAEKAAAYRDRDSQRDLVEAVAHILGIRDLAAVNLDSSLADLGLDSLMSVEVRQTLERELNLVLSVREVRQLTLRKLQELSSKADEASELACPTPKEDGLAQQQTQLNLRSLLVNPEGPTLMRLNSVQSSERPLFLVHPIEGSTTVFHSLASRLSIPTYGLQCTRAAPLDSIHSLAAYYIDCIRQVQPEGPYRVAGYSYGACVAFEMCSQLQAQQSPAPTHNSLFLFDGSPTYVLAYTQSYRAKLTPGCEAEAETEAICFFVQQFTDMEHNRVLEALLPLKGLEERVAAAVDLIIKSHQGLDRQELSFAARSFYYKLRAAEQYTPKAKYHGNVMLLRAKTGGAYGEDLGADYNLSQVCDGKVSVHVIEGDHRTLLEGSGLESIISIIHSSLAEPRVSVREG
Format: biochemical
Method: FAS activity was measured through one of the two following assays.
Inhibition of FAS activity can be measured based on the detection of residual NADPH substrate after the FAS assay is quenched. This assay is run as a 10 μL endpoint assay in 384-well format, where the reaction contains 20 μM malonyl-CoA, 2 μM acetyl-CoA, 30 μM NADPH and 40 nM FAS in 50 mM sodium phosphate, pH 7.0. The assay is run by sequentially dispensing 5 μl of a malonyl-CoA solution, then enzyme solution (containing the acetyl-CoA, and NADPH) into a black, low volume assay plate (Greiner 784076) pre-dispensed with […] compound solutions in DMSO. The reaction is incubated at ambient temperature for 60 minutes, then quenched with 5 μL of a developing solution composed of 90 μM resazurin, 0.3 IU/ml diaphorase in 50 mM sodium phosphate, pH 7.0. The developed reaction is read on a Molecular Devices Analyst or Acquest (or equivalent) plate reader using a 530 nm excitation wavelength filter, a 580 nm emission filter, and 561 nm dichroic filter. The test compounds are prepared in neat DMSO at a concentration of 10 mM. For inhibition curves, compounds are diluted using a three-fold serial dilution and tested at 11 concentrations (e.g. 25 μM-0.42 nM). Curves are analysed using ActivityBase and XLfit, and results are expressed as pIC50 values.
Inhibition of FAS can also be quantified based on the detection of the CoA products with a thio-reactive coumarin dye. This assay is run as a 10 μL endpoint assay in 384-well format, where the reaction contains 20 μM malonyl-CoA, 20 μM acetyl-CoA, 40 μM NADPH and 2 nM FAS in 50 mM sodium phosphate, pH 7.0, and 0.04% Tween-20. The assay is run by adding 5 μL enzyme solution to a black, low volume assay plate (Greiner 784076) pre-dispensed with 100 nl compound solutions in DMSO. After 30 minutes, […] substrate is added, and the reaction incubated at ambient temperature for an additional 60 minutes. The reaction is then quenched with 10 μL of 6M guanidine-HCl containing 50 μM CPM (7-diethylamino-3-(4′-maleimidylphenyl)-4-methylcoumarin (CPM; thio-reactive dye), and incubated for 30 minutes. The plate is read on an Envision (PerkinElmer) or equivalent plate reader using a 380 nm excitation wavelength filter, and a 486 nm emission filter. Data fitting and compound preparations are done as described above.

Row | IC50 [nM] | SMILES
1 | 55 | O=C(C1CC1)N1CC[C@@H](Cn2c(-c3ccc(-c4ccc5ncsc5c4)cc3)nc3ccccc32)C1 [Example 4, 6-[4-(1-{[(3S)-1-(Cyclopropylcarbonyl)-3-pyrrolidinyl]methyl}-1H-benzimidazol-2-yl)phenyl]-1,3-benzothiazole]
2 | 1450 | O=C(C1CC1)N1CC[C@@H](Cn2c(-c3ccc(-c4ccc(F)cc4)cc3)nc3cccc(C(F)(F)F)c32)C1 [Example 117, 1-{[(3S)-1-(Cyclopropylcarbonyl)-3-pyrrolidinyl]methyl}-2-(4′-fluoro-4-biphenylyl)-7-(trifluoromethyl)-1H-benzimidazole]
3 | 30.9 | O=C(C1CC1)N1CC[C@@H](Cn2c(-c3ccc(-c4ccc5[nH]ccc5c4)cc3)nc3cc(C(F)(F)F)ccc32)C1 [Example 62, 1-{[(3S)-1-(Cyclopropylcarbonyl)-3-pyrrolidinyl]methyl}-2-[4-(1H-indol-5-yl)phenyl]-5-(trifluoromethyl)-1H-benzimidazole]
4 | 10 | CN1CCN(C(=O)c2ccc3nc(-c4ccc(-c5ccc6[nH]ccc6c5)cc4)n(C[C@@H]4CCN(C(=O)C5CC5)C4)c3c2)CC1 [Example 107, 1-{[(3S)-1-(Cyclopropylcarbonyl)-3-pyrrolidinyl]methyl}-2-[4-(1H-indol-5-yl)phenyl]-6-[(4-methyl-1-piperazinyl)carbonyl]-1H-benzimidazole]
5 | 50.1 | Cc1ccc2nc(-c3ccc(-c4ccc5occc5c4)cc3)n(C[C@@H]3CCN(C(=O)C4CC4)C3)c2c1 [Example 83, 2-[4-(1-Benzofuran-5-yl)phenyl]-1-{[(3S)-1-(cyclopropylcarbonyl)-3-pyrrolidinyl]methyl}-6-(methyl)-1H-benzimidazole]
6 | 26.9 | Cc1ccc2c(c1)nc(-c1ccc(-c3ccc4[nH]ncc4c3)cc1)n2C[C@@H]1CCN(C(=O)C2CC2)C1 [Example 49, 5-[4-(1-{[(3S)-1-(Cyclopropylcarbonyl)-3-pyrrolidinyl]methyl}-5-methyl-1H-benzimidazol-2-yl)phenyl]-1H-indazole]
7 | 21.9 | COc1ccc2nc(-c3ccc(-c4ccc5cc[nH]c5c4)cc3)n(C[C@@H]3CCN(C(=O)C4CC4)C3)c2c1 [Example 66, 1-{[(3S)-1-(Cyclopropylcarbonyl)-3-pyrrolidinyl]methyl}-2-[4-(1H-indol-6-yl)phenyl]-6-(methyloxy)-1H-benzimidazole]
8 | 55 | CN1CCN(C(=O)c2ccc3nc(-c4ccc(-c5ccc6cc[nH]c6c5)cc4)n(C[C@@H]4CCN(C(=O)C5CC5)C4)c3c2)CC1 [Example 106, 1-{[(3S)-1-(Cyclopropylcarbonyl)-3-pyrrolidinyl]methyl}-2-[4-(1H-indol-6-yl)phenyl]-6-[(4-methyl-1-piperazinyl)carbonyl]-1H-benzimidazole]
9 | 43.7 | O=C(C1CC1)N1CC[C@@H](Cn2c(-c3ccc(-c4ccc5cc[nH]c5c4)cc3)nc3ccc(C(F)(F)F)cc32)C1 [Example 88, 1-{[(3S)-1-(Cyclopropylcarbonyl)-3-pyrrolidinyl]methyl}-2-[4-(1H-indol-6-yl)phenyl]-6-(trifluoromethyl)-1H-benzimidazole]
10 | 49 | O=C(C1CC1)N1CC[C@@H](Cn2c(-c3ccc(-c4ccc5cc[nH]c5c4)cc3)nc3c(C(F)(F)F)cccc32)C1 [Example 24, 1-{[(3S)-1-(Cyclopropylcarbonyl)-3-pyrrolidinyl]methyl}-2-[4-(1H-indol-6-yl)phenyl]-4-(trifluoromethyl)-1H-benzimidazole]
11 | 135 | O=C(C1CC1)N1CC[C@@H](Cn2c(-c3ccc(-c4ccccc4)cc3)nc3c(Br)cccc32)C1 [Example 33, 2-(4-Biphenylyl)-4-bromo-1-{[(3S)-1-(cyclopropylcarbonyl)-3-pyrrolidinyl]methyl}-1H-benzimidazole]
